The values that follow come from patent US20240101572A1, “DIHYDROOXADIAZINONE COMPOUND AND PHARMACEUTICAL USE THEREOF” (Japan Tobacco Inc., priority 2022, published 2024).

In one assay the target is full-length human PLD2 (Homo sapiens (Human), UniProt O14939). The assay can be described thus: Evaluation of human PLD2 enzyme inhibitory activity (Amplex Red / choline oxidase fluorescence). Type of assay: biochemical. The note with it: full-length human PLD2 enzyme; read-out: PLD2 IC50. The procedure, abridged: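 Enzyme was N-terminal FLAG-tagged full-length human PLD2 (1-933), expressed in Expi293F cells and anti-FLAG purified. Compound (5% DMSO final) was incubated with enzyme (6 nmol/L solution) and 1,2-diheptanoyl-PC (6 mmol/L solution) in HEPES pH 7.5, KCl, EGTA, MgCl2, NP-40, BSA buffer for 60 min at room temperature. Choline was detected with Amplex Red/choline oxidase/HRP.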
Chain of full-length human PLD2 (O14939 whole entry): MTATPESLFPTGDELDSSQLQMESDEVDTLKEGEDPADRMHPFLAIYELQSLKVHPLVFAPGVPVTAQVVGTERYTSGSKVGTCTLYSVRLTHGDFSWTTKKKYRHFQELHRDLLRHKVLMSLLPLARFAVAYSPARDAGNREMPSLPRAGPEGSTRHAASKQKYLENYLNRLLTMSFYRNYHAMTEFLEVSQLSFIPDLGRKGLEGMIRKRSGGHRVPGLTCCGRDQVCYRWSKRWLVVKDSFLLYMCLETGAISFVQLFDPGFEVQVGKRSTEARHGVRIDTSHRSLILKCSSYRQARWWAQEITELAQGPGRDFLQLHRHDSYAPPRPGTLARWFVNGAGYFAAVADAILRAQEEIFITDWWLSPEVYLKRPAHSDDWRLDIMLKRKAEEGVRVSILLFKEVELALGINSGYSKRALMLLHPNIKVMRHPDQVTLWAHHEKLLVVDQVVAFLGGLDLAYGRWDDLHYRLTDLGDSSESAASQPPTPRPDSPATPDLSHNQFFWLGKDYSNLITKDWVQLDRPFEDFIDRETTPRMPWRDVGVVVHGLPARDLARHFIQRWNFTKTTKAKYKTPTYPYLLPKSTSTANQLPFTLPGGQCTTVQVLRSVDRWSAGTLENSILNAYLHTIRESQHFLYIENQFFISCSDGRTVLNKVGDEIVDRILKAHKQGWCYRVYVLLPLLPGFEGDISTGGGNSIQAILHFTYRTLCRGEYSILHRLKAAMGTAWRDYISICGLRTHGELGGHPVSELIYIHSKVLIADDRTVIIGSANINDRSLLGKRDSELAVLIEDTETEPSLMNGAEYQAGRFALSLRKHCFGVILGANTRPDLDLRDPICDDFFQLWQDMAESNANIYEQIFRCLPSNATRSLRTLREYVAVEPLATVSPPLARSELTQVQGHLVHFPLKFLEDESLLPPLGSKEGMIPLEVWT

In another assay the target is full-length human PLD1 (Homo sapiens (Human), UniProt Q13393). The assay is described as follows: Evaluation of human PLD1 enzyme inhibitory activity (Amplex Red / choline oxidase fluorescence). The note with it: full-length human PLD1 enzyme; read-out: PLD1 IC50. In kind it is biochemical. The procedure, abridged:
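N-terminally FLAG-tagged full-length human PLD1 (1-1036), expressed in Expi293F and FLAG-purified, incubated with compound (5% DMSO final) and 1,2-diheptanoyl-sn-glycero-3-phosphocholine for 60 min at room temperature in HEPES pH 7.5 buffer. Released choline detected by Amplex Red/choline oxidase/HRP fluorescence.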

pIC50: −log10 of the molar value.

Chain of full-length human PLD1 (Q13393 other isoform, or with tags, fused parts or gaps): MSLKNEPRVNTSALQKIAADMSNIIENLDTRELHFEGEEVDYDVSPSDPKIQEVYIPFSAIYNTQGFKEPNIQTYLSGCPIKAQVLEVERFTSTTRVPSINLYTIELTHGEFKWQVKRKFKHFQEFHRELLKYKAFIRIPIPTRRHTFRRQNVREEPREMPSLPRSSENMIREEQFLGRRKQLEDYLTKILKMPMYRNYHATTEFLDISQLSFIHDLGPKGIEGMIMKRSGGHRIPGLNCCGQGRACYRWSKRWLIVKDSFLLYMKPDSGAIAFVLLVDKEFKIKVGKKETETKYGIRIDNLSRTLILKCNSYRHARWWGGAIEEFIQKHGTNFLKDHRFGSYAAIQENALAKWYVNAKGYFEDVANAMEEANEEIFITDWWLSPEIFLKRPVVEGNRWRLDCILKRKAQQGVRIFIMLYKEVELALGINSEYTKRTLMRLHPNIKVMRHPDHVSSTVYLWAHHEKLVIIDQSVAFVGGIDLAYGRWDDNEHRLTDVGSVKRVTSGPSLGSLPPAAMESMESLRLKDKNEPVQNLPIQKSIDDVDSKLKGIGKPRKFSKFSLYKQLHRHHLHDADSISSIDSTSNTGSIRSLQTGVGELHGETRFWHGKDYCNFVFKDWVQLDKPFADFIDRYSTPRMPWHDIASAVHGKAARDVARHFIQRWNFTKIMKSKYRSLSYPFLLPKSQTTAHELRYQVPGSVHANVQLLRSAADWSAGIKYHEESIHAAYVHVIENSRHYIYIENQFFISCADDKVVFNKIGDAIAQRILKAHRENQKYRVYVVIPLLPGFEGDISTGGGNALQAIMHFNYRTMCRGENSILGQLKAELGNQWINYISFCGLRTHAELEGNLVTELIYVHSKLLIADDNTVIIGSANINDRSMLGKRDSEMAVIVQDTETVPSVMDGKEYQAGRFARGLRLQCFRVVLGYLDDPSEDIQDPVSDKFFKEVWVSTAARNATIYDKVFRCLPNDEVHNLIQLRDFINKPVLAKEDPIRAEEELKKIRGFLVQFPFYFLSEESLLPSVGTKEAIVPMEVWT

For `Cc1cc(Br)ccc1C1=NNC(=O)O[C@]12CC[C@@H](C[C@H](C)NC(=O)C(=O)NC1CC1)CC2` [Example 209], the pIC50 at full-length human PLD2 and on full-length human PLD1 was 7.74 in each case.
`Cc1cc(Br)ccc1C1=NNC(=O)O[C@]12CC[C@@H](C[C@H](C)NC(=O)NC1CC1)CC2` [Example 210]: the pIC50 is 5.96 on full-length human PLD2 and 6.53 on full-length human PLD1.
With `C[C@@H](C[C@H]1CC[C@]2(CC1)OC(=O)NN=C2c1ccc(F)cc1Br)NC(=O)C(F)F` [Example 211], the pIC50 is 6.37 at full-length human PLD2 and 6.99 on full-length human PLD1.
On to `CNC(=O)C(=O)N[C@@H](C)C[C@H]1CC[C@]2(CC1)OC(=O)NN=C2c1cc(Br)ccc1C` [Example 212], for which the pIC50 at full-length human PLD2 and at full-length human PLD1 was > 8.00 throughout.
For the compound `CC(=O)NCC(=O)N[C@@H](C)C[C@H]1CC[C@]2(CC1)OC(=O)NN=C2c1ccc(F)cc1Br` [Example 213], the pIC50 on full-length human PLD2 is 6.94; on full-length human PLD1, 7.07.
Consider `Cc1cc(C(=O)N[C@@H](C)C[C@H]2CC[C@]3(CC2)OC(=O)NN=C3c2cc(OC(F)F)ccc2Br)[nH]n1` [Example 214], for which the pIC50 on full-length human PLD2 and at full-length human PLD1 was > 8.00 in each case.
Consider `Cc1cc(C(=O)N[C@@H](C)C[C@H]2CC[C@]3(CC2)OC(=O)NN=C3c2cc(OC(F)F)ccc2C)[nH]n1` [Example 215], for which the pIC50 on full-length human PLD2 and on full-length human PLD1 was > 8.00 throughout.
As for `CNC(=O)C(=O)N[C@@H](C)CN1CCC2(CC1)OC(=O)NN=C2c1ccc(Cl)cc1C` [Example 216], the pIC50 is 7.72 on full-length human PLD2 and 7.54 at full-length human PLD1.
On the same counts, the results for `Cc1cc(C(=O)N[C@@H](C)CN2CCC3(CC2)OC(=O)NN=C3c2ccc(Cl)cc2C)[nH]n1` [Example 217] are > 8.00 and 7.77.
Consider `Cc1cc(N2CCOCC2)ccc1C1=NNC(=O)O[C@]12CC[C@@H](C[C@H](C)NC(=O)C(=O)NC1CC1)CC2` [Example 218], for which the pIC50 is 7.89 on full-length human PLD2 and 7.64 at full-length human PLD1.
Regarding `C[C@@H](C[C@H]1CC[C@]2(CC1)OC(=O)NN=C2c1ccc(F)cc1Br)NC(=O)c1cnn(C)c1` [Example 219], the pIC50 on full-length human PLD2 and at full-length human PLD1 was > 8.00 each time.
Regarding `COc1cc(C)c(C2=NNC(=O)O[C@]23CC[C@@H](C[C@H](C)NC(=O)C(=O)NC2CC2)CC3)cn1` [Example 220], the pIC50 at full-length human PLD2 is 7.48; on full-length human PLD1 it was 7.38.
For `Cc1cc(C(=O)N[C@@H](C)C[C@H]2CC[C@]3(CC2)OC(=O)NN=C3c2cnc(N3CCOCC3)cc2C)[nH]n1` [Example 221], the figures for the pIC50 at full-length human PLD2 and on full-length human PLD1 were > 8.00 and 7.80, respectively.
The like results for `C[C@@H](C[C@H]1CC[C@]2(CC1)OC(=O)NN=C2c1cc(C#N)ccc1Br)NC(=O)NC1CC1` [Example 222, 1-((S)-1-(cis-5-(2-bromo-5-cyanophenyl)-2-oxo-1-oxa-3,4-diazaspiro[5.5]undec-4-en-9-yl)propan-2-yl)-3-cyclopropylurea] were, in that order, 6.77 and 7.23.
The like results for `Cc1cc(C(=O)N[C@@H](C)C[C@H]2CC[C@]3(CC2)OC(=O)NN=C3c2cnc(Cl)cc2N2CCC(F)(F)C2)[nH]n1` [Example 223] were, in that order, 6.61 and 6.40.
Take `Cc1cc(C(=O)N[C@@H](C)C[C@H]2CC[C@]3(CC2)OC(=O)NN=C3c2cnc(N3CCC(F)(F)C3)cc2Cl)[nH]n1` [Example 224]: the pIC50 on full-length human PLD2 was > 8.00; at full-length human PLD1, 7.89.
Take `Cc1cc(C(=O)N[C@@H](C)C[C@H]2CC[C@]3(CC2)OC(=O)NN=C3c2cnc(Cl)cc2N2CCOCC2)[nH]n1` [Example 225]: the negative-log IC50 (pIC50) on full-length human PLD2 was 6.69; at full-length human PLD1 it was 6.29.
As to `Cc1cc(C(=O)N[C@@H](C)C[C@H]2CC[C@]3(CC2)OC(=O)NN=C3c2cnc(N3CCOCC3)cc2Cl)[nH]n1` [Example 226], the pIC50 at full-length human PLD2 was > 8.00; at full-length human PLD1 it was 7.74.
`CNC(=O)C(=O)N[C@@H](C)C[C@H]1CC[C@]2(CC1)OC(=O)NN=C2c1cnc(N2CC(C(F)F)C2)cc1C` [Example 227]: the pIC50 at full-length human PLD2 was > 8.00; on full-length human PLD1 it was 7.72.
The like results for `CNC(=O)C(=O)N[C@@H](C)C[C@H]1CC[C@]2(CC1)OC(=O)NN=C2c1cnc(N2CC(F)(F)C2)cc1C` [Example 228] were, in that order, > 8.00 and 7.55.
With `Cc1cc(N2CCOCC2)ccc1C1=NNC(=O)O[C@]12CC[C@@H](C[C@H](C)NC(=O)NC1CC1)CC2` [Example 229], the pIC50 is 6.51 on full-length human PLD2 and 6.71 at full-length human PLD1.
`CNC(=O)C(=O)N[C@@H](C)C[C@H]1CC[C@]2(CC1)OC(=O)NN=C2c1cnc(C)cc1Cl` [Example 230, N^1—((S)-1-(cis-5-(4-chloro-6-methylpyridin-3-yl)-2-oxo-1-oxa-3,4-diazaspiro[5.5]undec-4-en-9-yl)propan-2-yl)-N^2-methyloxamide]: the pIC50 was > 8.00 at full-length human PLD2 and 7.68 at full-length human PLD1.
On the same counts, the results for `Cc1cc(Cl)c(C2=NNC(=O)O[C@]23CC[C@@H](C[C@H](C)NC(=O)c2cc(C)n[nH]2)CC3)cn1` [Example 231] are 7.92 and 7.62.
The like results for `Cc1cc(C(=O)N[C@@H](C)CN2CC[C@@]3(C[C@H]2C)OC(=O)NN=C3c2ccc(C#N)cc2Cl)[nH]n1` [Example 232] were, in that order, 5.67 and 5.59.
On the same counts, the results for `CNC(=O)C(=O)N[C@@H](C)CN1CC[C@@]2(C[C@H]1C)OC(=O)NN=C2c1ccc(C#N)cc1Cl` [Example 233] are 5.75 and 5.73.
As to `COc1cc(C)c(C2=NNC(=O)O[C@]23CC[C@@H](C[C@H](C)NC(=O)NCc2ccccc2F)CC3)cn1` [Example 234], the pIC50 at full-length human PLD2 was 6.32; at full-length human PLD1 it was 6.61.
With `COc1cc(C)c(C2=NNC(=O)O[C@]23CC[C@@H](C[C@H](C)NC(=O)N2CCn4nncc4C2)CC3)cn1` [Example 235], the pIC50 is 7.89 at full-length human PLD2 and 7.46 at full-length human PLD1.
Regarding `COc1cc(C)c(C2=NNC(=O)O[C@]23CC[C@@H](C[C@H](C)NC(=O)N2CCc4ccccc4C2)CC3)cn1` [Example 236], the pIC50 on full-length human PLD2 is > 8.00; on full-length human PLD1, 7.82.
On the same counts, the results for `COc1cc(C)c(C2=NNC(=O)O[C@]23CC[C@@H](C[C@H](C)NC(=O)N2CCn4nccc4C2)CC3)cn1` [Example 237] are > 8.00 and 7.47.
The like results for `Cc1cc(C(=O)N[C@@H](C)C[C@H]2CC[C@]3(CC2)OC(=O)NN=C3c2cnc(N3CCC(F)(F)C3)cc2C)[nH]n1` [Example 238] were, in that order, > 8.00 and 7.92.
On to `Cc1cc(C(=O)N[C@@H](C)C[C@H]2CC[C@]3(CC2)OC(=O)NN=C3c2cnc(N3C[C@H]4C[C@@H]3CO4)cc2Cl)[nH]n1` [Example 239], for which the results for the pIC50 at full-length human PLD2 and on full-length human PLD1 were > 8.00 and 7.74, respectively.
For `Cc1cc(C(=O)N[C@@H](C)C[C@H]2CC[C@]3(CC2)OC(=O)NN=C3c2cnc(N3C[C@@H]4C[C@H]3CO4)cc2Cl)[nH]n1` [Example 240], the figures for the pIC50 at full-length human PLD2 and at full-length human PLD1 were > 8.00 and 7.89, respectively.
For the compound `CNC(=O)C(=O)N[C@@H](C)C[C@H]1CC[C@]2(CC1)OC(=O)NN=C2c1cnc(N2CCC(F)(F)C2)cc1Cl` [Example 241], the pIC50 on full-length human PLD2 is > 8.00; on full-length human PLD1 it was 7.77.
The like results for `CNC(=O)C(=O)N[C@@H](C)C[C@H]1CC[C@]2(CC1)OC(=O)NN=C2c1cnc(N2CCOCC2)cc1Cl` [Example 242] were, in that order, > 8.00 and 7.80.

As usually defined, the pIC50 is −log10 of the IC50, conventionally taken in molar units.
